The values below are quoted from earlier work in patent US20160271085A1 (priority 2015, published 2016).

Structures are written as SMILES.

The conditions of series [1]: oral, ingested.
Another series has as its system injured sciatic nerves. The following applies: addition of lactate; response did not occur in an atmosphere of nitrogen.
In series [2] the test system is amyotrophic lateral sclerosis. The following applies: ALS.

In the case of `CC(O)C(=O)[O-].[Na+]` (stereo not drawn) [sodium lactate, Sodium lactate], the serum lactate levels result in series [1] is reported as “significantly elevate serum lactate levels”.
For the molecule `CC(O)C(=O)O` (stereo not drawn) [lactate], the sustained muscle contraction result with injured sciatic nerves was “enhanced”.
Turning to `Nc1nc2ccc(OC(F)(F)F)cc2s1` [Riluzole], the “progress of the disease” value in series [2] is “appears to slow the progress of the disease”.
